Residues, ends and D or L forms follow the SMILES beside them.

As usually defined, the Kd is the equilibrium constant for the complex coming apart.

For one assay, the target named is KSBcl-2. The experiment in a line: receptor | KSBcl-2.
Assay [1] has as its target Bfl-1 (Homo sapiens, UniProt Q16548). The experiment in a line: receptor | Bfl-1.
Assay [2] concerns the target Bcl-w (Homo sapiens, UniProt Q92843). The experiment in a line: receptor | Bcl-w.
The target in assay [3] is T1, Bcl-xL (Homo sapiens, UniProt Q07817). The experiment in a line: receptor | Bcl-xL.
Target sequence in this assay (Q07817 whole entry, looked up): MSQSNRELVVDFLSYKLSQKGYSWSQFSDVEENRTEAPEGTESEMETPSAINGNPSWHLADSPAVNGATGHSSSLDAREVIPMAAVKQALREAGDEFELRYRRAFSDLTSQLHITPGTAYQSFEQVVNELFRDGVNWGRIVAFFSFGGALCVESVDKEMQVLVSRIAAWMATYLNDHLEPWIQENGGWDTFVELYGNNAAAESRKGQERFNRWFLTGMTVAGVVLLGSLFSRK
Assay [4] addresses T2, Bcl-2 (Homo sapiens, UniProt P10415). The experiment in a line: receptor | Bcl-2.
Target sequence in this assay (P10415 whole entry, looked up): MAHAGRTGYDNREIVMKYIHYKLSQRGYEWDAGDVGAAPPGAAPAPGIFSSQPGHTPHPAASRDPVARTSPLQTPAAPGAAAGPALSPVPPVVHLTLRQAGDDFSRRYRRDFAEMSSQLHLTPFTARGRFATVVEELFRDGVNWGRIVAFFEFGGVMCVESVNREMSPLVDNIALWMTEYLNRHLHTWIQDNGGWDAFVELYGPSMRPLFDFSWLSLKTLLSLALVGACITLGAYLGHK
The target of assay [5] is T1, Bcl-xL. The experiment in a line: Fluorescence anisotropy direct binding of N-terminal fluorescein peptides.
Target sequence in this assay (Q07817 whole entry): as the sequence (Q07817 whole entry, looked up) above
Assay [6] has as its target T2, Bcl-2. The assay is described as above.
Target sequence in this assay (P10415 whole entry): as the sequence (P10415 whole entry, looked up) above
Assay [7] addresses T3, Bcl-w (Homo sapiens, UniProt Q92843).
T3 sequence (Q92843 1-193): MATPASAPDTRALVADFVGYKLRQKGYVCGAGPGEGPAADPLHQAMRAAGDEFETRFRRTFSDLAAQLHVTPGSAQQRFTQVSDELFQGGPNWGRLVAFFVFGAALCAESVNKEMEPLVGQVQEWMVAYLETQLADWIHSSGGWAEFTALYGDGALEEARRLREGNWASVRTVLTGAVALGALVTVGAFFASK
The description is as above.

The target in assay [8] is T4, Bfl-1 (Homo sapiens, UniProt Q16548).
T4 sequence (Q16548 1-175): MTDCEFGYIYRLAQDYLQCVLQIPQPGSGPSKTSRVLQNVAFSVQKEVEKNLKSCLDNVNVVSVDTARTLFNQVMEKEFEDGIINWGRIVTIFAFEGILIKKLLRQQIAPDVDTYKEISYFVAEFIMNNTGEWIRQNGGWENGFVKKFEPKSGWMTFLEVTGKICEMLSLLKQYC
Described as above.

Another assay deals with Pfeiffer cells. To be noted: Pfeiffer. The procedure:
(§1) A whole-cell BH3 profiling assay was used to test the specificity of our Mcl-1-binding peptides in several cell lines with differing dependencies on Bcl-2, Mcl-1, Bcl-xL, or Bfl-1. In this assay, permeabilized cells were treated with increasing doses of BH3 peptides, and mitochondrial outer membrane permeabilization (MOMP) was monitored using the dye JC-1 (see below). Mcl-1/Myc 2640 is an engineered murine leukemia cell line overexpressing murine Mcl-1 and Myc, and Bcl-2/Myc 2924 is a similarly engineered cell line overexpressing human Bcl-2.
(§2) Assay plates were produced by serial dilution of each peptide from 200 μM to 0.2 nM using 10-fold dilutions in DTEB (Derived from Trehalose Experimental Buffer: 135 mM trehalose, 50 mM KCl, 20 μM EDTA, 20 μM EGTA, 0.1% BSA, 5 mM succinate, 10 mM HEPES-KOH pH 7.5) containing 0.005% w/v digitonin, 10 mM 2-mercaptoethanol, 2 μM JC-1, and 20 mg mL-1 oligomycin. Triplicate wells for each peptide were made for each cell line by adding 15 μL of the peptide dilutions to each well of a black, untreated 384-well plate. Control wells containing no peptide or 20 μM FCCP (carbonyl cyanide-4(trifluoromethoxy) phenylhydrazone, a chemical uncoupler of oxidative phosphorylation) were included for zero and complete depolarization, respectively. Multiple plates were produced from the same stock and frozen at −80 ° C. for later use. Frozen plates were brought to RT prior to use, cells were suspended in DTEB at a density of 1.34×10^6 cells/mL, and 15 μL of cell suspension was added to each well of the dilution series to yield wells ranging from 0.1 nM to 100 μM peptide and 20000 cells/well. Fluorescence of JC-1 aggregates was measured at 590 nm with 545 nm excitation on a Tecan Safire2 at 5 min intervals for 3 h. The area under each signal-vs-time curve was calculated and normalized to the untreated and FCCP values to produce the percent depolarization. Curves were plotted as the log [peptide] vs percent depolarization, with sigmoidal dose—response curves fitted using Graphpad PRISM 6.

The next assay deals with Bcl-2/Myc 2924 cells. To be noted: Bcl-2/Myc 2924. The procedure:
as §1, §2

In another assay the test system is MDA-MB-231 cells. The conditions noted are these: MDA-MB-231. The procedure: as §1, §2
Another assay concerns Mcl-1/Myc 2640 cells. The conditions noted are these: Mcl-1/Myc 2640. As for the experimental part:
as §1, §2

RPEIWMTQGLRRLGDEINAYYAR [MS1] displayed a Kd on KSBcl-2 of 0.0029 ± 0.00068 µM.

As to `CC[C@H](C)[C@H](NC(=O)[C@H](CCC(=O)O)NC(=O)[C@H](CC(=O)O)NC(=O)CNC(=O)[C@H](CC(C)C)NC(=O)[C@H](CCCNC(=N)N)NC(=O)[C@H](CCC(N)=O)NC(=O)[C@H](CC(C)C)NC(=O)[C@H](CO)NC(=O)[C@H](CCC(N)=O)NC(=O)CNC(=O)[C@H](CC(C)C)NC(=O)[C@H](Cc1c[nH]c2ccccc12)NC(=O)[C@@H](NC(=O)[C@H](CCC(=O)O)NC(=O)[C@@H]1CCCN1C(=O)[C@@H](N)CCCNC(=N)N)[C@@H](C)CC)C(=O)N[C@@H](CC(N)=O)C(=O)N[C@@H](C)C(=O)N[C@@H](Cc1ccc(O)cc1)C(=O)N[C@@H](Cc1ccc(O)cc1)C(=O)N[C@@H](C)C(=O)N[C@@H](CCCNC(=N)N)C(N)=O` [B3] (H-RPEIWLGQSLQRLGDEINAYYAR-NH2; N-terminus and C-terminus assumed), at KSBcl-2, the Kd came to 0.00143 ± 0.00139 µM.

For the compound `CC[C@H](C)[C@H](NC(=O)[C@H](CCC(=O)O)NC(=O)[C@H](CC(=O)O)NC(=O)CNC(=O)[C@H](CC(C)C)NC(=O)[C@H](CCCNC(=N)N)NC(=O)[C@H](CCCNC(=N)N)NC(=O)[C@H](CC(C)C)NC(=O)CNC(=O)[C@H](CCC(N)=O)NC(=O)CNC(=O)[C@H](CCSC)NC(=O)[C@H](Cc1c[nH]c2ccccc12)NC(=O)[C@@H](NC(=O)[C@H](CCC(=O)O)NC(=O)[C@@H]1CCCN1C(=O)[C@@H](N)CCCNC(=N)N)[C@@H](C)CC)C(=O)N[C@@H](CC(N)=O)C(=O)N[C@@H](C)C(=O)N[C@@H](Cc1ccc(O)cc1)C(=O)N[C@@H](Cc1ccc(O)cc1)C(=O)N[C@@H](C)C(=O)N[C@@H](CCCNC(=N)N)C(N)=O` [A12] (H-RPEIWMGQGLRRLGDEINAYYAR-NH2; N-terminus and C-terminus assumed), binding on KSBcl-2 was put at a Kd of 0.004 ± 0.0026 µM.

Consider RPEIWLTQSLQRLGDEINAYYAR [MS2], for which the Kd on KSBcl-2 is < 0.001 µM.

With `CC[C@H](C)[C@H](NC(=O)[C@H](CCC(=O)O)NC(=O)[C@H](CC(=O)O)NC(=O)CNC(=O)[C@H](CC(C)C)NC(=O)[C@H](CCCNC(=N)N)NC(=O)[C@H](CCC(N)=O)NC(=O)[C@H](CC(C)C)NC(=O)[C@H](Cc1c[nH]cn1)NC(=O)[C@H](CCC(N)=O)NC(=O)[C@@H](NC(=O)[C@H](CC(C)C)NC(=O)[C@H](Cc1c[nH]c2ccccc12)NC(=O)[C@@H](NC(=O)[C@H](CCC(=O)O)NC(=O)[C@@H]1CCCN1C(=O)[C@@H](N)CCCNC(=N)N)[C@@H](C)CC)[C@@H](C)O)C(=O)N[C@@H](CC(N)=O)C(=O)N[C@@H](C)C(=O)N[C@@H](Cc1ccc(O)cc1)C(=O)N[C@@H](Cc1ccc(O)cc1)C(=O)N[C@@H](C)C(=O)N[C@@H](CCCNC(=N)N)C(N)=O` [MS3], the Kd at Bfl-1 [1] amounted to 0.79 ± 0.14 µM; at Bcl-w [2] it was 0.34 ± 0.069 µM.

On to `CC[C@H](C)[C@H](NC(=O)[C@H](CCCNC(=N)N)NC(=O)[C@H](CCCNC(=N)N)NC(=O)[C@H](CC(C)C)NC(=O)[C@H](CCC(=O)O)NC(=O)[C@H](CCC(N)=O)NC(=O)[C@@H](NC(=O)[C@H](CCSC)NC(=O)[C@H](Cc1c[nH]c2ccccc12)NC(=O)[C@@H](NC(=O)[C@H](CCC(=O)O)NC(=O)[C@@H]1CCCN1C(=O)[C@@H](N)CCCNC(=N)N)[C@@H](C)CC)[C@@H](C)O)C(=O)NCC(=O)N[C@@H](CC(=O)O)C(=O)N[C@@H](CCC(=O)O)C(=O)N[C@@H](Cc1ccccc1)C(=O)N[C@@H](CC(N)=O)C(=O)N[C@@H](C)C(=O)N[C@@H](Cc1ccc(O)cc1)C(=O)N[C@@H](Cc1ccc(O)cc1)C(=O)N[C@@H](C)C(=O)N[C@@H](CCCNC(=N)N)C(N)=O` [Bim_A2eT_I2dM], for which the Kd at Bfl-1 [1] stood at 0.15 ± 0.069 µM; at Bcl-w [2] it was 0.26 ± 0.052 µM; at Bcl-xL [3], 0.083 ± 0.053 µM; at Bcl-2 [4] it was 0.21 ± 0.071 µM.

Take `CC[C@H](C)[C@H](NC(=O)[C@H](CCC(=O)O)NC(=O)[C@H](CC(=O)O)NC(=O)CNC(=O)[C@H](CC(C)C)NC(=O)[C@H](CCCNC(=N)N)NC(=O)[C@H](CCC(N)=O)NC(=O)[C@H](CC(C)C)NC(=O)[C@H](Cc1c[nH]cn1)NC(=O)[C@H](CCC(N)=O)NC(=O)[C@@H](NC(=O)[C@H](CC(C)C)NC(=O)[C@H](Cc1c[nH]c2ccccc12)NC(=O)[C@@H](NC(=O)[C@H](CCC(=O)O)NC(=O)[C@@H]1CCCN1C(=O)[C@H](CCCNC(=N)N)NC(C)=O)[C@@H](C)CC)[C@@H](C)O)C(=O)N[C@@H](CC(N)=O)C(=O)N[C@@H](C)C(=O)N[C@@H](Cc1ccc(O)cc1)C(=O)N[C@@H](Cc1ccc(O)cc1)C(=O)N[C@@H](C)C(=O)N[C@@H](CCCNC(=N)N)C(N)=O` [MS3]: at Bcl-xL [5], the “binding affinity to Bcl-xL (in words)” value was “micromolar affinity”. Further, the “binding affinity to Bcl-2 (in words)” value on Bcl-2 [6] is reported as “micromolar affinity”. Moreover, the “binding affinity to Bcl-w (in words)” value on Bcl-w [7] is listed as “several-hundred nanomolar affinity”. Also, the “binding affinity to Bfl-1 (in words)” value on Bfl-1 [8] is “several-hundred nanomolar affinity”. In addition, the “depolarization response (in words)” value in the assay with Pfeiffer cells is given as “stronger response in Pfeiffer than MS1 or MS2”.

`CC[C@H](C)[C@H](NC(=O)[C@H](CCC(=O)O)NC(=O)[C@@H]1CCCN1C(=O)[C@@H](N)CCCNC(=N)N)C(=O)N[C@@H](Cc1c[nH]c2ccccc12)C(=O)N[C@H](C(=O)N[C@H](C(=O)N[C@@H](CCC(N)=O)C(=O)N[C@@H](CCC(=O)O)C(=O)N[C@@H](CC(C)C)C(=O)N[C@@H](CCCNC(=N)N)C(=O)N[C@@H](CCCNC(=N)N)C(=O)N[C@@H](CC(C)C)C(=O)NCC(=O)N[C@@H](CC(=O)O)C(=O)N[C@@H](CCC(=O)O)C(=O)N[C@@H](Cc1ccccc1)C(=O)N[C@@H](CC(N)=O)C(=O)N[C@@H](C)C(=O)N[C@@H](Cc1ccc(O)cc1)C(=O)N[C@@H](Cc1ccc(O)cc1)C(=O)N[C@@H](C)C(=O)N[C@@H](CCCNC(=N)N)C(N)=O)[C@@H](C)O)[C@@H](C)CC` [Bim_A2eT_I3dL]: the Kd on Bfl-1 [1] was 0.12 ± 0.027 µM; on Bcl-w [2], 0.012 ± 0.0026 µM; on Bcl-xL [3] it was 0.0076 ± 0.0038 µM; at Bcl-2 [4], 0.037 ± 0.014 µM.

Consider RPEIWITQGLRRIGDEFNAYYAR [Bim_A2eT_E2gG], for which the “depolarization response (in words)” value in the assay on Bcl-2/Myc 2924 cells is “depolarization response intermediate to that of Bim and MS1”; with MDA-MB-231 cells, “depolarization response intermediate to that of Bim and MS1”; in the assay with Mcl-1/Myc 2640 cells, “strong depolarization response”; in the assay with Pfeiffer cells it was “depolarization response intermediate to that of Bim and MS1”.

With `CC[C@H](C)[C@H](NC(=O)[C@H](CCCNC(=N)N)NC(=O)[C@H](CCCNC(=N)N)NC(=O)[C@H](CC(C)C)NC(=O)[C@H](CCC(=O)O)NC(=O)[C@H](CCC(N)=O)NC(=O)[C@@H](NC(=O)[C@@H](NC(=O)[C@H](Cc1c[nH]c2ccccc12)NC(=O)[C@@H](NC(=O)[C@H](CCC(=O)O)NC(=O)[C@@H]1CCCN1C(=O)[C@@H](N)CCCNC(=N)N)[C@@H](C)CC)[C@@H](C)CC)[C@@H](C)O)C(=O)NCC(=O)N[C@@H](CC(=O)O)C(=O)N[C@@H](CCC(=O)O)C(=O)N[C@@H](Cc1ccccc1)C(=O)N[C@@H](CC(N)=O)C(=O)N[C@@H](C)C(=O)N[C@@H](Cc1ccc(O)cc1)C(=O)N[C@@H](Cc1ccc(O)cc1)C(=O)N[C@@H](C)C(=O)N[C@@H](CCCNC(=N)N)C(N)=O` [Bim_A2eT], the Kd on Bfl-1 [1] amounted to 0.031 ± 0.0068 µM; on Bcl-w [2], 0.039 ± 0.0094 µM; at Bcl-xL [3] it was 0.017 ± 0.0048 µM; at Bcl-2 [4], 0.043 ± 0.012 µM.

The values are drawn from patent US11142554B2 (MASSACHUSETTS INSTITUTE OF TECHNOLOGY, priority 2015, dated 2021).
